Experimental data taken from PMC7026080, “Phenotypic high-throughput screening platform identifies novel chemotypes for necroptosis inhibition” (Cell Death Discovery, 2020).

Test system: L929 cells
Experiment: Cytotoxicity in L929 cells without TNF-α, 24 h, LDH release
Type: cell-based, murine
Conditions: Mus musculus, absence of TNF-α, toxicity, screening step 7, read-out: IC50 L929 (in vitro)
Method: The ability of compounds to interfere with specific steps of the necroptosis pathway, as well as inherent cytotoxicity and long-term necroptosis inhibitory effects were evaluated using in vitro necroptosis models (Fig. S1). Firstly, the 110 compounds were tested for their ability to modulate TNF-α-induced MLKL phosphorylation, a key necroptotic effector downstream of RIPK3[13]. […] Membrane integrity was evaluated by both AK and LDH release to exclude potential false positives.
Whole cell extracts were analysed by immunoblotting. […] Data represent mean values ± SEM of three independent experiments normalized to untreated control. Cell viability was assessed using a colorimetric-based readout for LDH release.
Whole cell extracts were analysed by immunoblotting. Data shown are representative blots and quantification of p-MLKL/MLKL ratio from one single experiment, in fold-change from control. […] Data represent mean values ± SEM of three independent experiments normalized to untreated control. Cell viability was assessed using a colorimetric-based readout for LDH release. c In vitro screening results for seven selected compounds at different stages of the HTS cascade. TEXT PRINTED IN THE PICTURE: (C) Nec-1: EC50 [μM] L929 + TNF-α (in vitro): 1.25 (Screening Step: 1; Time Point: 8 h); EC50 [μM] L929 + TNF-α (in vitro): 1.13 (Screening Step: 7; Time Point: 24 h); EC50 [μM] […]

O=C(c1cnn(Cc2ccccc2)c1)N1CCOc2ccccc2C1 [SN-6109] showed an IC50 greater than 100 µM.
CN1C(=O)C(Cc2c[nH]c3ccccc23)NC1=S (centres unmarked) [Nec-1, necrostatin-1] gave an IC50 greater than 100 µM.
